“Also recorded” adds a separate entry of the source. Where two headings read alike, the source gives them in different places.

One test has as its target acid α-glucosidase (GAA) (Homo sapiens (Human), UniProt P10253). Kind of test: Enzyme selectivity assay, acid α-glucosidase. Type of test: biochemical. Conditions: up to 100 μM. An excerpt:
(§1) Louis, Mo.). The recombinant wild-type GCase enzyme velaglucerase alfa ([…] Human Genetic Therapies, Inc.), acid α-glucosidase enzyme alglucosidase alfa (Lumizyme®, Genzyme Corporation), α-galactosidase A enzyme agalsidase beta (Fabrazyme®, Genzyme Corporation) were used in activity assays. […] The acid α-glucosidase and α-galactosidase A enzyme activity assay methods were similar to the GCase enzyme activity assay above with slight modifications.

Test [1] concerns the target T1, wild-type GCase (Homo sapiens (Human), UniProt P04062). Put plainly: Fluorescence thermal shift analysis. The format is binding. Conditions: for stabilization of GCase (melting point change): pH 5.0, in words. An excerpt: Compounds shown to act as pharmacological chaperones for GCase (or other lysosomal enzymes) also stabilize the enzyme against thermal denaturation. A fluorescent thermal shift assay was developed to evaluate the binding affinity of ligands with protein^30. […] The maximum thermal shift of these compounds corresponded to their inhibitory activity at pH 5.0.
A robotic pipeline in the High Throughput Analysis Laboratory (HTAL) was used for protein ligand screening by fluorescence thermal shift (FTS) analysis. The pipeline used a Mosquito robot (TTP Labtech) for protein dispensing and an Echo 550 (Labcyte) to add compounds. Thermal scanning coupled with fluorescence detection was performed on a real-time PCR machine CFX384 (Bio-Rad Laboratories). The assay was run in 384-well PCR plates, using 10 μL citric acid/K2HPO4 buffer (50 mM citric acid, 150 mM K2HPO4, pH 5.0) per well. The assay concentration for protein was 1 μM and that for Sypro Orange (Invitrogen) was 5×. Protein was premixed with Sypro Orange and dispensed to a plate first, and compounds were added. Final concentrations of compounds ranged from 0.5 to 200 μM. Then the plate was sealed with an optical seal, shaken, and centrifuged. The thermal scan was from 10 to 95° C. with a temperature ramp rate of 1.5° C./min. The fluorescence was recorded every 10 sec. Data analysis and report generation were performed using the in-house software excelFTS.

In test [2] the target is T1, wild-type GCase. Put plainly: GCase enzyme activity assay (4MU-β-Glc, no taurocholate). Type of test: biochemical. How it is done: In previous studies, high concentrations of taurocholate (4-10 mM) were used to improve the signal in GCase enzyme activity assays^16,27,28. […] Here we describe our modifications of the substituents on the quinazoline ring.
4-Methylumbelliferyl β-D-glucopyranoside (4MU-β-Glc), 4-methylumbelliferyl α-D-glucopyranoside,4-methylumbelliferyl α-D-galactopyranoside, and buffer components were purchased from Sigma-Aldrich (St. Louis, Mo.). The recombinant wild-type GCase enzyme velaglucerase alfa (Vpriv®, Shire Human Genetic Therapies, Inc.), acid α-glucosidase enzyme alglucosidase alfa (Lumizyme®, Genzyme Corporation), α-galactosidase A enzyme agalsidase beta (Fabrazyme®, Genzyme Corporation) were used in activity assays. […] A solution of 1 M sodium hydroxide and 1 M glycine (pH 10) was used as the stop solution for all three enzyme activity assays.
The compounds in DMSO solution (0.5 μL/well) were transferred to a black 96-well plate (the final titration started from 100 μM, a 12 or 24-point 2-fold dilution series). […] After 5 min of incubation at room temperature, the enzyme reaction was initiated by the addition of blue substrate (4MU-13-Glc) (33 μL/well). The final concentration of the blue substrate was 1.5 mM. The blue substrate reaction was terminated by the addition of 33 μL/well stop solution (1 M NaOH and 1 M glycine mixture, pH 10) after 30 min of incubation at 37° C. […] The selected compounds were further assayed under pH 5.0 and pH 7.0 to evaluate their selectivity under various pH conditions.

A further test addresses α-galactosidase A (GLA) (Homo sapiens (Human), UniProt P06280). Put plainly: Enzyme selectivity assay, α-galactosidase A. The format is biochemical. Conditions: up to 100 μM.
Source text: as §1

The target of test [3] is T2, N370S mutant GCase in patient fibroblasts (Homo sapiens (Human), UniProt P04062, N370S). Put plainly: GCase protein level in N370S fibroblasts by Western blot. Type of test: cell-based. Conditions: 3 days treatment. How it is done: (§2) The N370S fibroblast cell line was obtained from Coriell, GM00372, cultured in DMEM medium (Life Tech) including 1% v/v L-glutamine 200 mM (Life Tech), 1% v/v pen strep (Life Tech), 10% FBS (Life Tech) at 37° C. and 5% CO2 and treated with different compounds at 0.2 μM and 2 μM. After a 3-day treatment, cells were washed with inhibitor free media 3 times and fed with inhibitor free media for 1 day, followed by 1% Triton X-100 lysis buffer to lyse cells. Protein concentrations were measured with a Bradford kit (Thermo), and the GCase activity was determined at pH 5.5.
Proteins were denatured in 20% SDS sample buffer at 100° C. for 10 min; 10% Bis-Tris gel (Life Tech) was used for gels; Trans-Blot Turbo PVDF kit (Bio-Rad) was used for membrane transfer, and Chemidoc MP system (Bio-Rad) was used to analyze the blots.
(Immunoblotting shows a protein as a band on a membrane.)

Test [4] deals with T3, GCase (Homo sapiens (Human), UniProt P04062). Put plainly: Fluorescence polarization assay. The format is binding. How it is done: The fluorescent probe 3 (25 nL/well, 50 nM final concentration) was transferred to a 384-well black plate using a Labcyte Echo 550 Liquid Handler system. The 25 μL/well enzyme dilutions with GCase enzyme activity buffer were added to the plate, which was shaken at room temperature in dark for 20 min. The final titration was 5 nM to 10 μM, 10 concentrations, 2 times dilution. The fluorescence polarization was measured in Molecular Devices Analyst GT with Ex=535 nm and Em=580 nm, G Factor=1.05.
For orientation: Polarisation of emitted light reports the rotation of a fluorescent probe.

The target of test [5] is T2, N370S mutant GCase in patient fibroblasts. Kind of test: GCase activity in N370S fibroblasts after compound treatment. Conditions: 3-day treatment. Type of test: cell-based. How it is done:
as §2

In test [6] the target is T3, GCase. Kind of test: Enzyme kinetic assay (resorufin β-D-glucopyranoside). Conditions: substrate 30-150 μM. The format is biochemical. How it is done:
We further tested compounds 4 and 11g by measuring GCase activity at various substrate concentrations (30-150 μM) and in the absence or presence of increasing concentrations of GCase inhibitors.
The substrate resorufin β-D-glucopyranoside was diluted to five concentrations, ranging from 30 to 150 μM. Seven concentrations of inhibitors (between 0.5- and 5-fold of IC50 value) and a DMSO control were added to the enzyme solution. The final enzyme concentration was 10 nM to give a linear reaction over 10 min. Enzyme kinetics were measured by the addition of 66 μL of substrate to a 96-well assay plate, followed by 33 μL of enzyme solution (with or without inhibitor) using a dispense module on a Biotek Synergy H1 multi-mode plate reader. The increase in product fluorescence was measured at 1 min intervals for 10 min in the plate reader. The rate of product formation was calculated by converting the fluorescence units to nanomoles of product per minute using a standard curve of the free fluorophore, resorufin.

Where [7] appears, read: pH 5.0, mean ± SD, read-out: IC50 pH 5.0.
Where [8] appears, read: pH 5.9, mean ± SD, read-out: IC50 pH 5.9.
Setting [9] is: pH 7.0, mean ± SD, read-out: IC50 pH 7.0.

T2 sequence (P04062 40-536 N409S): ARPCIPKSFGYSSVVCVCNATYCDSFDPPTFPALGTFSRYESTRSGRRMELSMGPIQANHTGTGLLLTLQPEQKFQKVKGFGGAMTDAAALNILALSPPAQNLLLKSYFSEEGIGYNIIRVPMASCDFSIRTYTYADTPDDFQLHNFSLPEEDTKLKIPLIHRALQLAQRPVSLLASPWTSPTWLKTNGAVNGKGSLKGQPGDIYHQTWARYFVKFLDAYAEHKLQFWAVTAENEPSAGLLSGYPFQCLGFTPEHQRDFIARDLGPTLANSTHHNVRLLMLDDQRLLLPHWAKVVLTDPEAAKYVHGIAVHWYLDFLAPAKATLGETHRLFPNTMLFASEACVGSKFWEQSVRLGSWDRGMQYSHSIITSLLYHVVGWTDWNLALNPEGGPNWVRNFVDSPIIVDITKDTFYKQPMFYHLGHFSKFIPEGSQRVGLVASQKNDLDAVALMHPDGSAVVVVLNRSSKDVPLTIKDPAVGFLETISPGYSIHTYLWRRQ
T3 sequence (P04062 40-536): as the sequence (P04062 40-536 N409S) above, with S370N counted along it
T1 sequence (P04062 40-536): as the sequence (P04062 40-536 N409S) above, with S370N counted along it
Chain of α-galactosidase A (GLA) (P06280 32-429): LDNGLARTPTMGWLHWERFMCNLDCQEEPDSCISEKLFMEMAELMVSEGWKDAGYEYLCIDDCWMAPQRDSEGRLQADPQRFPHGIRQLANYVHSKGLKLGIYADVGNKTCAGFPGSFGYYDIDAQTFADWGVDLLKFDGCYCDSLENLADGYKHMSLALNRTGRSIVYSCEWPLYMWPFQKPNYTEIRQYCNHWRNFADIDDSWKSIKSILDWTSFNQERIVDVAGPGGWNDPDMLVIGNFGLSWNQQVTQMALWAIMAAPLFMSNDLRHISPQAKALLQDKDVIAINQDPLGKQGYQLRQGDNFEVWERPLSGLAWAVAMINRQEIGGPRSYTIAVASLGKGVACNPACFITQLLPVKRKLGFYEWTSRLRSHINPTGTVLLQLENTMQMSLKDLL

Broadly, the IC50 is the point on the concentration scale where inhibition reaches its midpoint. On to `c1csc(-c2nc(NC3Cc4ccccc4C3)c3ccccc3n2)c1` [Compound 11f, N-(2,3-dihydro-1H-inden-2-yl)-2-(thiophen-2-yl)quinazolin-4-amine], for which, at acid α-glucosidase (GAA), the “activity of acid α-glucosidase on compound treatment” value (from here on “activity of acid α-glucosidase”) is recorded as “not significantly changed”. Moreover, at wild-type GCase [1], the “stabilization of GCase (melting point change)” value is listed as “stabilize wild-type GCase in a dose-dependent manner; also recorded: increased the GCase melting point in a dose-dependent manner”. Further, the IC50 at wild-type GCase [2] (setting [7]) worked out at 13.9 ± 1.9 nM; at wild-type GCase [2] (setting [8]), 8.2 ± 1 nM; at wild-type GCase [2] (setting [9]) it was 12.9 ± 2 nM. The “decrease of inhibitory activity at pH 5.0 compared to pH 5.9” value (“decrease of inhibitory activity” for short) on wild-type GCase [2] (pH 5.0 vs pH 5.9) was “only dropped slightly”. In addition, on α-galactosidase A (GLA), the “activity of α-galactosidase A on compound treatment” value is recorded as “not significantly changed”. The “concentration of GCase protein” value in test [3] was “significantly increased the concentration of GCase”.

The Kd is a measure of binding affinity in units of concentration. Lower therefore signals tighter binding. Consider `CN(C)c1ccc2c(-c3ccc(C(=O)NCCOCCOCC(=O)Nc4ccc(-c5nc(NC6Cc7ccccc7C6)c6ccccc6n5)cc4)cc3C(=O)O)c3ccc(=[N+](C)C)cc-3oc2c1` [compound 159], for which, on GCase [4], the dissociation constant (Kd) was 126 nM.

In the case of `c1ccc(-c2nc(NC3Cc4ccccc4C3)c3ccccc3n2)cc1` [Compound 11d, N-(2,3-dihydro-1H-inden-2-yl)-2-phenylquinazolin-4-amine], the “activity of acid α-glucosidase” value at acid α-glucosidase (GAA) is on record as “not significantly changed”. Further, on wild-type GCase [1], the “stabilization of GCase (melting point change)” value is “stabilize wild-type GCase in a dose-dependent manner; also recorded: increased the GCase melting point in a dose-dependent manner”. Further, the IC50 was found to be 6.5 ± 0.7 nM on wild-type GCase [2] (Table 5, pH 5.9, mean ± SD, read-out: IC50); 10.5 ± 1.5 nM at wild-type GCase [2] (setting [7]); 9.4 ± 1.4 nM at wild-type GCase [2] (setting [9]). Also, the “activity of α-galactosidase A on compound treatment” value at α-galactosidase A (GLA) is on record as “not significantly changed”. Besides, in test [3], the “concentration of GCase protein” value is recorded as “significantly increased the concentration of GCase”.

For the molecule `OC[C@H]1CNC[C@@H](O)[C@@H]1O` [IFG, Isofagomine, reference compound], the “GCase activity in patient cells” value in test [5] was “had no effect”. The “stabilization of GCase (melting point change)” value at wild-type GCase [1] is reported as “stabilize wild-type GCase in a dose-dependent manner”. Moreover, in test [3], the “concentration of GCase protein” value is reported as “did not have an effect”.

In the case of `c1cncc(-c2nc(NC3CCc4ccccc4C3)c3ccccc3n2)c1` (single isomer, unassigned) [Compound 9a], at acid α-glucosidase (GAA), the “activity of acid α-glucosidase” value is recorded as “not significantly changed”. Moreover, the “stabilization of GCase (melting point change)” value at wild-type GCase [1] is “stabilize wild-type GCase in a dose-dependent manner; also recorded: increased the GCase melting point in a dose-dependent manner”. The “decrease of inhibitory activity” value at wild-type GCase [2] was determined as 3 fold. Also, the “activity of α-galactosidase A on compound treatment” value on α-galactosidase A (GLA) is given as “not significantly changed”.

Take `c1cncc(-c2nc(N[C@@H]3CCc4ccccc4C3)c3ccccc3n2)c1` [Compound 9b]: the “activity of acid α-glucosidase” value at acid α-glucosidase (GAA) is given as “not significantly changed”. Further, on wild-type GCase [1], the “stabilization of GCase (melting point change)” value was “stabilize wild-type GCase in a dose-dependent manner; also recorded: increased the GCase melting point in a dose-dependent manner”. The “decrease of inhibitory activity” value at wild-type GCase [2] came to 3 fold. The “activity of α-galactosidase A on compound treatment” value on α-galactosidase A (GLA) was “not significantly changed”.

On to `CN(C)c1ccc2c(-c3ccc(C(=O)NCCOCCOCCOCCOCCC(=O)NCCCCCC(=O)Nc4ccc(-c5nc(NC6Cc7ccccc7C6)c6ccccc6n5)cc4)cc3C(=O)O)c3ccc(=[N+](C)C)cc-3oc2c1` [compound 160], for which the Kd at GCase [4] was 7.1 nM.

Consider `CN(C)c1ccc2c(-c3ccc(C(=O)NCCCCCC(=O)Nc4ccc(-c5nc(NC6Cc7ccccc7C6)c6ccccc6n5)cc4)cc3C(=O)O)c3ccc(=[N+](C)C)cc-3oc2c1` [compound 158], for which, at GCase [4], the dissociation constant (Kd) is 79 nM.

As to `c1ccc2c(c1)CC(Nc1nc(-c3ccsc3)nc3ccccc13)C2` [Compound 11g, N-(2,3-dihydro-1H-inden-2-yl)-2-(thiophen-3-yl)quinazolin-4-amine], the “GCase activity in patient cells” value in test [5] is “increased GCase activity”. Besides, the “activity of acid α-glucosidase” value at acid α-glucosidase (GAA) is “not significantly changed”. In addition, the maximum thermal shift entry on wild-type GCase [1] (pH 5.0) was “around 11 °C”. Besides, the “stabilization of GCase (melting point change)” value at wild-type GCase [1] is on record as “stabilize wild-type GCase in a dose-dependent manner; also recorded: increased the GCase melting point in a dose-dependent manner”. For the same molecule, the half-maximal inhibitory concentration (IC50) at wild-type GCase [2] (setting [7]) is 8.9 ± 1.3 nM; on wild-type GCase [2] (setting [8]) it was 5.2 ± 0.6 nM; on wild-type GCase [2] (setting [9]), 6.6 ± 1 nM. The “decrease of inhibitory activity” value on wild-type GCase [2] (pH 5.0 vs pH 5.9) was “only dropped slightly”. Also, the “activity of α-galactosidase A on compound treatment” value at α-galactosidase A (GLA) was “not significantly changed”. The “concentration of GCase protein” value in test [3] is “significantly increased the concentration of GCase”. Besides, the “type of inhibition (Lineweaver-Burk)” value on GCase [6] is listed as “linear mixed inhibition”.

For the molecule `c1ccc(Nc2nc(-c3cccnc3)nc3ccccc23)cc1` [Compound 8a], on wild-type GCase [1], the “stabilization of GCase (melting point change)” value is “did not change the melting points significantly”. Besides, on wild-type GCase [2], the “GCase inhibitory activity in words” value is recorded as “lost activity”. The half-inhibitory concentration (IC50) entry on wild-type GCase [2] (Table 3, pH 5.9, mean ± SD) is “inactive”.

Turning to `CN1CCC(Nc2nc(-c3cccnc3)nc3ccccc23)CC1` [Compound 6i], on wild-type GCase [2] (Table 1, pH 5.9, mean ± SD), the 50% inhibitory concentration (IC50) entry is given as “Inactive”.

Take `CCC1CCC(Nc2nc(-c3cccnc3)nc3ccccc23)CC1` (centres unmarked) [Compound 6b]: the half-inhibitory concentration (IC50) at wild-type GCase [2] (Table 1, pH 5.9, mean ± SD, read-out: IC50) is 126 ± 7 nM.

As to `CN(C)C1CCC(Nc2nc(-c3cccnc3)nc3ccccc23)CC1` (centres unmarked) [Compound 6g], the half-maximal inhibitory concentration (IC50) entry against wild-type GCase [2] (Table 1, pH 5.9, mean ± SD) is “Inactive”.

Regarding `c1ccc(CNc2nc(-c3cccnc3)nc3ccccc23)cc1` [Compound 8b], the half-maximal inhibitory concentration (IC50) at wild-type GCase [2] (Table 3, pH 5.9, mean ± SD, read-out: IC50) is 5770 ± 820 nM.
